According to paper PMC4710522, “A Novel Triazolopyridine-Based Spleen Tyrosine Kinase Inhibitor That Arrests Joint Inflammation” (PLoS ONE, 2016):
pIC50: −log10 of the molar value.

Tests used:
Test in all cases: SelectScreen kinase assay
Assay type in all cases: biochemical
PTK5_h = molecular target: T1, PTK5_h (Homo sapiens, UniProt P42685); conditions: KM ATP, read-out: % control
T1 construct: purchased Life Technologies (Invitrogen) SelectScreen, Z'-LYTE / Adapta
Method in brief: (§1)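 ATP level varied by condition (KM for the specific enzyme, 10 µM or 100 µM), while compound stayed at 3 µM; % control calculated against uninhibited DMSO wells.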

Abl_h = molecular target: T2, Abl_h (Homo sapiens, UniProt P00519); conditions: KM ATP, read-out: % control
T2 construct: purchased Life Technologies (Invitrogen) SelectScreen, Z'-LYTE / Adapta
Method in brief: as §1

CDK5_p35_h = molecular target: T3, CDK5_p35_h (Homo sapiens, UniProt Q00535); conditions: KM ATP, read-out: % control
T3 construct: purchased Life Technologies (Invitrogen) SelectScreen, Z'-LYTE / Adapta
Method in brief: as §1

PDGFR-alpha_T674I_h = molecular target: T4, PDGFR-alpha_T674I_h (Homo sapiens, UniProt P16234, T674I); conditions: KM ATP, read-out: % control
T4 construct: purchased Life Technologies (Invitrogen) SelectScreen, Z'-LYTE / Adapta
Method in brief: as §1

PKC-theta_h = molecular target: T5, PKC-theta_h (Homo sapiens, UniProt Q04759); conditions: KM ATP, read-out: % control
T5 construct: purchased Life Technologies (Invitrogen) SelectScreen, Z'-LYTE / Adapta
T5 sequence (Q04759 whole entry): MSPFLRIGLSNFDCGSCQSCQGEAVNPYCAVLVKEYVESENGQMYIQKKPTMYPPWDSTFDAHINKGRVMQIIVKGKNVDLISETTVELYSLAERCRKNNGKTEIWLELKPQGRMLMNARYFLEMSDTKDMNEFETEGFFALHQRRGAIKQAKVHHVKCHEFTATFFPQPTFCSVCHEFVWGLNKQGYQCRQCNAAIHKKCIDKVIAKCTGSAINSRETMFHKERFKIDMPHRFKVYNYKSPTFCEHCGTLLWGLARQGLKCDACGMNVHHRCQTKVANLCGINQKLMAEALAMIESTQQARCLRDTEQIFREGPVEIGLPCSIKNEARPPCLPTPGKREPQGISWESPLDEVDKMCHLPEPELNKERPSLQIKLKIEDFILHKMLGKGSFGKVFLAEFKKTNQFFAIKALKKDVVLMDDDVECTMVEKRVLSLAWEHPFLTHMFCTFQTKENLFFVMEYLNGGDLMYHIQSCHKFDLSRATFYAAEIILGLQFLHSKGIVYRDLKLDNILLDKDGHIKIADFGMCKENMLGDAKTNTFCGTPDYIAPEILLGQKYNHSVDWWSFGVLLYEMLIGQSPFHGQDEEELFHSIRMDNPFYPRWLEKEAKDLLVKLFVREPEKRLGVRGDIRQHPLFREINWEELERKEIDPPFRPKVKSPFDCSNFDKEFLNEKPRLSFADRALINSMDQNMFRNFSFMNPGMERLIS
Method in brief: as §1

SRPK2_h = molecular target: T6, SRPK2_h (Homo sapiens, UniProt P78362); conditions: KM ATP, read-out: % control
T6 construct: purchased Life Technologies (Invitrogen) SelectScreen, Z'-LYTE / Adapta
Method in brief: as §1

PDGFR-alpha_D842V_h = molecular target: T7, PDGFR-alpha_D842V_h (Homo sapiens, UniProt P16234, D842V); conditions: KM ATP, read-out: % control
T7 construct: purchased Life Technologies (Invitrogen) SelectScreen, Z'-LYTE / Adapta
Method in brief: as §1

EGFR_T790M_L858R_h = molecular target: T8, EGFR_T790M_L858R_h (Homo sapiens, UniProt P00533, L858R/T790M); conditions: KM ATP, read-out: % control
T8 construct: purchased Life Technologies (Invitrogen) SelectScreen, Z'-LYTE / Adapta
Method in brief: as §1

MARK3_h = molecular target: T9, MARK3_h (Homo sapiens, UniProt P27448); conditions: KM ATP, read-out: % control
T9 construct: purchased Life Technologies (Invitrogen) SelectScreen, Z'-LYTE / Adapta
T9 sequence (P27448 whole entry): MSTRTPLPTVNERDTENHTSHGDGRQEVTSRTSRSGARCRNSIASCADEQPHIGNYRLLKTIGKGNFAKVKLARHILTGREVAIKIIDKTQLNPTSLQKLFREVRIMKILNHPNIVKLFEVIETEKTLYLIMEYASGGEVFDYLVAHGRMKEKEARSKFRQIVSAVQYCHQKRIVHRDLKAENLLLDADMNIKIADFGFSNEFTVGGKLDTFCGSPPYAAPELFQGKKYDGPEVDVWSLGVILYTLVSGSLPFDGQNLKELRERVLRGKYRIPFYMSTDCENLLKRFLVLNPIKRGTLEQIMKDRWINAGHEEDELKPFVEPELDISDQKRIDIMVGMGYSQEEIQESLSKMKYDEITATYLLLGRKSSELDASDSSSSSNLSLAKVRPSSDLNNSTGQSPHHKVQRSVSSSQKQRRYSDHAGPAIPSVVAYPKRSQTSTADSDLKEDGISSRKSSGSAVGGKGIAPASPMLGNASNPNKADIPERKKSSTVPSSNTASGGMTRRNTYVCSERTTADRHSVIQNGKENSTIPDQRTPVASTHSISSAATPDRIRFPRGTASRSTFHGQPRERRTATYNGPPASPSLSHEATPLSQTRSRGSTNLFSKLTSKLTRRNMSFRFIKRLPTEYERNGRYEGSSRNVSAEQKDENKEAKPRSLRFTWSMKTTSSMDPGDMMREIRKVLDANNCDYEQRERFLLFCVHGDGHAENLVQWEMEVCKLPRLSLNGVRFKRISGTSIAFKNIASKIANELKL
Method in brief: as §1

MRCK-alpha_h = molecular target: T10, MRCK-alpha_h (Homo sapiens, UniProt Q5VT25); conditions: KM ATP, read-out: % control
T10 construct: purchased Life Technologies (Invitrogen) SelectScreen, Z'-LYTE / Adapta
Method in brief: as §1

ZAP-70_h = ZAP-70_h (Homo sapiens, UniProt P43403)
Sequence of ZAP-70_h (P43403 whole entry): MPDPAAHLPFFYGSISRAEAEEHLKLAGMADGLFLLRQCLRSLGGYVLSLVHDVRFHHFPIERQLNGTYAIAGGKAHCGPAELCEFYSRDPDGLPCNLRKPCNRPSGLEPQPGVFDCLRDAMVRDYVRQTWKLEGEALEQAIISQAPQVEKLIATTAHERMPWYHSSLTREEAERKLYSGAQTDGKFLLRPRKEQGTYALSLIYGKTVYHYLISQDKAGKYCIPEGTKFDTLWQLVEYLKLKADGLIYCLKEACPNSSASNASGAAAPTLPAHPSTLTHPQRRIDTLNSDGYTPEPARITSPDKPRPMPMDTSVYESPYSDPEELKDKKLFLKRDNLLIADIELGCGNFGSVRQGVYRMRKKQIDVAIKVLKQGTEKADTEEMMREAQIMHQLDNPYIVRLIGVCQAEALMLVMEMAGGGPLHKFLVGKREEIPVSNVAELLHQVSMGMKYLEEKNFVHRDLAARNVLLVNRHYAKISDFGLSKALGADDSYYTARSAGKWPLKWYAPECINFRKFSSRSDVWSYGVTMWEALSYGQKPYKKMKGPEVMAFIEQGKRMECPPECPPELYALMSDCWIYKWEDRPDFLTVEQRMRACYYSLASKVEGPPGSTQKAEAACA
Method in brief: as §1

TBK1_h = molecular target: T11, TBK1_h (Homo sapiens, UniProt Q9UHD2); conditions: KM ATP, read-out: % control
T11 construct: purchased Life Technologies (Invitrogen) SelectScreen, Z'-LYTE / Adapta
Method in brief: as §1

FGFR2_h = molecular target: T12, FGFR2_h (Homo sapiens, UniProt P21802); conditions: KM ATP, read-out: % control
T12 construct: purchased Life Technologies (Invitrogen) SelectScreen, Z'-LYTE / Adapta
Method in brief: as §1

MAPK3_h = molecular target: T13, MAPK3_h (Homo sapiens, UniProt P27361); conditions: KM ATP, read-out: % control
T13 construct: purchased Life Technologies (Invitrogen) SelectScreen, Z'-LYTE / Adapta
Method in brief: as §1

DYR1A_h = molecular target: T14, DYR1A_h (Homo sapiens, UniProt Q13627); conditions: KM ATP, read-out: % control
T14 construct: purchased Life Technologies (Invitrogen) SelectScreen, Z'-LYTE / Adapta
Method in brief: as §1

SIK2_h = molecular target: T15, SIK2_h (Homo sapiens, UniProt Q9H0K1); conditions: KM ATP, read-out: % control
T15 construct: purchased Life Technologies (Invitrogen) SelectScreen, Z'-LYTE / Adapta
Method in brief: as §1

Fes_h = molecular target: T16, Fes_h (Homo sapiens, UniProt P07332); conditions: KM ATP, read-out: % control
T16 construct: purchased Life Technologies (Invitrogen) SelectScreen, Z'-LYTE / Adapta
Method in brief: as §1

CDK2_cyclinA_h = molecular target: T17, CDK2_cyclinA_h (Homo sapiens, UniProt P24941); conditions: KM ATP, read-out: % control
T17 construct: purchased Life Technologies (Invitrogen) SelectScreen, Z'-LYTE / Adapta
Method in brief: as §1

Ros_h = molecular target: T18, Ros_h (Homo sapiens, UniProt P08922); conditions: KM ATP, read-out: % control
T18 construct: purchased Life Technologies (Invitrogen) SelectScreen, Z'-LYTE / Adapta
Method in brief: as §1

CHK1_h = molecular target: T19, CHK1_h (Homo sapiens, UniProt O14757); conditions: KM ATP, read-out: % control
T19 construct: purchased Life Technologies (Invitrogen) SelectScreen, Z'-LYTE / Adapta
T19 sequence (O14757 whole entry): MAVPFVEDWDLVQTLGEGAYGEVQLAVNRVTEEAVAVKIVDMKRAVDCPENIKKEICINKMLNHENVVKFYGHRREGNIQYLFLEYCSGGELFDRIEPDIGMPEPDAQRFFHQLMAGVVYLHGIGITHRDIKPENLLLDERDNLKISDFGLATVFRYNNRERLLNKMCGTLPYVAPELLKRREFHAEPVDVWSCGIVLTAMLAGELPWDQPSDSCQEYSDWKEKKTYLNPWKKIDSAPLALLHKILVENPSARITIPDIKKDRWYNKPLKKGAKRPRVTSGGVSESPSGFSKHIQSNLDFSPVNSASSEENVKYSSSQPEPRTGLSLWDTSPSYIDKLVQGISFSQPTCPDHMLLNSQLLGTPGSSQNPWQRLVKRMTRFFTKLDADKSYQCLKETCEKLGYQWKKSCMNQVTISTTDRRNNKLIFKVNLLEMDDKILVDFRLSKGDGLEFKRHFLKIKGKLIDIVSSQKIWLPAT
Method in brief: as §1

CaMKI-delta_h = molecular target: T20, CaMKI-delta_h (Homo sapiens, UniProt Q8IU85); conditions: KM ATP, read-out: % control
T20 construct: purchased Life Technologies (Invitrogen) SelectScreen, Z'-LYTE / Adapta
Method in brief: as §1

NEK9_h = molecular target: T21, NEK9_h (Homo sapiens, UniProt Q8TD19); conditions: KM ATP, read-out: % control
T21 construct: purchased Life Technologies (Invitrogen) SelectScreen, Z'-LYTE / Adapta
T21 sequence (Q8TD19 whole entry): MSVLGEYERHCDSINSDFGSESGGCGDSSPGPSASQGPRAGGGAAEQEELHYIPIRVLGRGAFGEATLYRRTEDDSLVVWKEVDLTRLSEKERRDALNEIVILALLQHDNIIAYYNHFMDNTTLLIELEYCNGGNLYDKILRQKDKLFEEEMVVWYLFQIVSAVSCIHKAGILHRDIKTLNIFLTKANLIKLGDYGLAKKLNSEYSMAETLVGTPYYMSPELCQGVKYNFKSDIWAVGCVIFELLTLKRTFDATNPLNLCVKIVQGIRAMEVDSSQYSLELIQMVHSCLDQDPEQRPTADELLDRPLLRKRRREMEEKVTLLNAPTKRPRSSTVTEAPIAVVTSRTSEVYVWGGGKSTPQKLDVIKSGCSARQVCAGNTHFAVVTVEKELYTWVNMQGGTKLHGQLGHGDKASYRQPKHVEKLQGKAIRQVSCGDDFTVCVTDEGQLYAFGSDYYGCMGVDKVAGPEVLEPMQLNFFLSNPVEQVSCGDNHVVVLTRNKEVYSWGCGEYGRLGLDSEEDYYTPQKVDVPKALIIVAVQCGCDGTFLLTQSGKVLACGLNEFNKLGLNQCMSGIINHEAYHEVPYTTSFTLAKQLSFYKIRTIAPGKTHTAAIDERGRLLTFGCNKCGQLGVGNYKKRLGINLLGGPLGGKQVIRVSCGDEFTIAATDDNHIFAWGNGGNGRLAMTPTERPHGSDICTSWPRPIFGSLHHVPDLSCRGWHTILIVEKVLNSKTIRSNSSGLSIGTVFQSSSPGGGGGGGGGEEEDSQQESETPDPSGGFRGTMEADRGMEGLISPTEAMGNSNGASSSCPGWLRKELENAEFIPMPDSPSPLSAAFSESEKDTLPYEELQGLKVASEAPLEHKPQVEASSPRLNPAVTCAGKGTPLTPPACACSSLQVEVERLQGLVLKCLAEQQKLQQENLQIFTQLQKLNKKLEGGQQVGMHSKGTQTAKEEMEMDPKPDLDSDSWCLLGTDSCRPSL
Method in brief: as §1

NEK6_h = molecular target: T22, NEK6_h (Homo sapiens, UniProt Q9HC98); conditions: KM ATP, read-out: % control
T22 construct: purchased Life Technologies (Invitrogen) SelectScreen, Z'-LYTE / Adapta
Method in brief: as §1

Abl_E255K_h = molecular target: T23, Abl_E255K_h (Homo sapiens, UniProt P00519, E255K); conditions: KM ATP, read-out: % control
T23 construct: purchased Life Technologies (Invitrogen) SelectScreen, Z'-LYTE / Adapta
Method in brief: as §1

Flt3_D835Y_h = molecular target: T24, Flt3_D835Y_h (Homo sapiens, UniProt P36888, D835Y); conditions: KM ATP, read-out: % control
T24 construct: purchased Life Technologies (Invitrogen) SelectScreen, Z'-LYTE / Adapta
Method in brief: as §1

ALK4_h = molecular target: T25, ALK4_h (Homo sapiens, UniProt P36896); conditions: KM ATP, read-out: % control
T25 construct: purchased Life Technologies (Invitrogen) SelectScreen, Z'-LYTE / Adapta
T25 sequence (P36896 24-505): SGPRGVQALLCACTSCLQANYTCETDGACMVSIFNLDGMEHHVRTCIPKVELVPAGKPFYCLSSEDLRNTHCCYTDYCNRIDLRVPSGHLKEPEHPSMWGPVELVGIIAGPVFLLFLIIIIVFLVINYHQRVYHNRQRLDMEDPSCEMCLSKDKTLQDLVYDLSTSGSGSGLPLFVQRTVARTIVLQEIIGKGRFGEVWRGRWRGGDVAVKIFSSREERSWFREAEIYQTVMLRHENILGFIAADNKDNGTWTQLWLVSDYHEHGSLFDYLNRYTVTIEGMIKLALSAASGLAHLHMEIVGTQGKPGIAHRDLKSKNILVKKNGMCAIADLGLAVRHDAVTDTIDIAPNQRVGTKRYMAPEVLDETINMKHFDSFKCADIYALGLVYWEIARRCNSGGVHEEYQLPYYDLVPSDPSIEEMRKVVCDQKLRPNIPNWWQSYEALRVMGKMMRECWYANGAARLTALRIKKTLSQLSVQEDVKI
Method in brief: as §1

ROCK-II_h = molecular target: T26, ROCK-II_h (Homo sapiens, UniProt O75116); conditions: KM ATP, read-out: % control
T26 construct: purchased Life Technologies (Invitrogen) SelectScreen, Z'-LYTE / Adapta
Method in brief: as §1

Met_h = molecular target: T27, Met_h (Homo sapiens, UniProt P08581); conditions: KM ATP, read-out: % control
T27 construct: purchased Life Technologies (Invitrogen) SelectScreen, Z'-LYTE / Adapta
Method in brief: as §1

IKBKE_h = molecular target: T28, IKBKE_h (Homo sapiens, UniProt Q14164); conditions: KM ATP, read-out: % control
T28 construct: purchased Life Technologies (Invitrogen) SelectScreen, Z'-LYTE / Adapta
Method in brief: as §1

Fms_h = Fms_h (Homo sapiens, UniProt P07333)
Sequence of Fms_h (P07333 20-972): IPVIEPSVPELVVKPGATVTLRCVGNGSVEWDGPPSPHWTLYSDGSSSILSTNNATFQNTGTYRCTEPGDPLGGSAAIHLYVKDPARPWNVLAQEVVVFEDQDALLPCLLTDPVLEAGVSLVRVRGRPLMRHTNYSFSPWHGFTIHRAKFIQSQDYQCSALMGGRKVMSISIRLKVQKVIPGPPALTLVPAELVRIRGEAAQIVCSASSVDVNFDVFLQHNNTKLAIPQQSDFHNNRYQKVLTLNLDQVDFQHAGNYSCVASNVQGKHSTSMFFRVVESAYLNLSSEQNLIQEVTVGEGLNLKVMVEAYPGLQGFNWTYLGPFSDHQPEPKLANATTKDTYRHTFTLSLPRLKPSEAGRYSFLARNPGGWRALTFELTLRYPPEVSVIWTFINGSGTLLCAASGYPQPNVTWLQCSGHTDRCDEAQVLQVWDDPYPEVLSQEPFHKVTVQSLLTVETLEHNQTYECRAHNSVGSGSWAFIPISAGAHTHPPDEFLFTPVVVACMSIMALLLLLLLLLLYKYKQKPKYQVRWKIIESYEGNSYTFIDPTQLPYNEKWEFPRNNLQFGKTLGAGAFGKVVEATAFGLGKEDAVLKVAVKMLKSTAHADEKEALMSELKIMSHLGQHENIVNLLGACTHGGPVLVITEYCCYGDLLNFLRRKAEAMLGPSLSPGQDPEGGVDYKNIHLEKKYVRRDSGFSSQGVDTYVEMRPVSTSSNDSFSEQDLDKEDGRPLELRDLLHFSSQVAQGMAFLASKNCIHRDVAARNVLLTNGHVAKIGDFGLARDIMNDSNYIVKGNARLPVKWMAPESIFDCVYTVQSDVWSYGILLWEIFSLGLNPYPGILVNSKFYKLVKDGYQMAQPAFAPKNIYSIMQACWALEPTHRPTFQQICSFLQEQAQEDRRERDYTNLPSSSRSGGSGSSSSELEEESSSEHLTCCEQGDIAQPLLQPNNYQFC
Method in brief: as §1

MSSK1_h = molecular target: T29, MSSK1_h (Homo sapiens, UniProt Q9UPE1); conditions: KM ATP, read-out: % control
T29 construct: purchased Life Technologies (Invitrogen) SelectScreen, Z'-LYTE / Adapta
Method in brief: as §1

DAPK1_h = molecular target: T30, DAPK1_h (Homo sapiens, UniProt P53355); conditions: KM ATP, read-out: % control
T30 construct: purchased Life Technologies (Invitrogen) SelectScreen, Z'-LYTE / Adapta
Method in brief: as §1

NEK2_h = molecular target: T31, NEK2_h (Homo sapiens, UniProt P51955); conditions: KM ATP, read-out: % control
T31 construct: purchased Life Technologies (Invitrogen) SelectScreen, Z'-LYTE / Adapta
Method in brief: as §1

[1] = 3 µM, KM ATP, read-out: % control
[2] = 10-point dose-response, commercial vendor

Q: Which remaining activity at 3 µM (PTK5_h) does the source give for `c1cc(CC2CCOCC2)n2nc(Nc3ccc4c(NC5CCOCC5)n[nH]c4c3)nc2c1` [CC-509, [3-(2H-3,4,5,6-tetrahydropyran-4-ylamino)(1H-indazol-6-yl)][5-(2H-3,4,5,6-tetrahydropyran-4-ylmethyl)(2H-1,2,4-triazolo[1,5-a]pyridin-2-yl)]amine] here?
A: The remaining activity at 3 µM was 86%.

Q: What about the remaining activity at 3 µM (Abl_h) of the same molecule?
A: The remaining activity at 3 µM was 19%.

Q: And the remaining activity at 3 µM (CDK5_p35_h)?
A: Its remaining activity at 3 µM is 77%.

Q: What about the remaining activity at 3 µM (PDGFR-alpha_T674I_h) of the same molecule?
A: The remaining activity at 3 µM was 80%.

Q: And the remaining activity at 3 µM (PKC-theta_h)?
A: Its remaining activity at 3 µM is 78%.

Q: What about the remaining activity at 3 µM (SRPK2_h) of the same molecule?
A: The remaining activity at 3 µM was 111%.

Q: And the remaining activity at 3 µM (PDGFR-alpha_D842V_h)?
A: Its remaining activity at 3 µM is 9%.

Q: What about the remaining activity at 3 µM (EGFR_T790M_L858R_h) of the same molecule?
A: The remaining activity at 3 µM was 52%.

Q: What about the remaining activity at 3 µM (MARK3_h) of the same molecule?
A: The remaining activity at 3 µM was 42%.

Q: What about the remaining activity at 3 µM (MRCK-alpha_h) of the same molecule?
A: The remaining activity at 3 µM was 91%.

Q: What about the remaining activity at 3 µM (ZAP-70_h; [1]) of the same molecule?
A: The remaining activity at 3 µM was 70%.

Q: What about the pIC50 (ZAP-70_h; [2]) of the same molecule?
A: The pIC50 was < 5.52.

Q: And the remaining activity at 3 µM (TBK1_h)?
A: The remaining activity at 3 µM was 10%.

Q: What about the remaining activity at 3 µM (FGFR2_h) of the same molecule?
A: Its remaining activity at 3 µM is 46%.

Q: And the remaining activity at 3 µM (MAPK3_h)?
A: Its remaining activity at 3 µM is 90%.

Q: And the remaining activity at 3 µM (DYR1A_h)?
A: The remaining activity at 3 µM was 99%.

Q: What about the remaining activity at 3 µM (SIK2_h) of the same molecule?
A: Its remaining activity at 3 µM is 6%.

Q: What about the remaining activity at 3 µM (Fes_h) of the same molecule?
A: The remaining activity at 3 µM was 53%.

Q: What about the remaining activity at 3 µM (CDK2_cyclinA_h) of the same molecule?
A: Its remaining activity at 3 µM is 64%.

Q: And the remaining activity at 3 µM (Ros_h)?
A: Its remaining activity at 3 µM is 74%.

Q: And the remaining activity at 3 µM (CHK1_h)?
A: The remaining activity at 3 µM was 94%.

Q: What about the remaining activity at 3 µM (CaMKI-delta_h) of the same molecule?
A: Its remaining activity at 3 µM is 86%.

Q: What about the remaining activity at 3 µM (NEK9_h) of the same molecule?
A: The remaining activity at 3 µM was 95%.

Q: What about the remaining activity at 3 µM (NEK6_h) of the same molecule?
A: The remaining activity at 3 µM was 99%.

Q: And the remaining activity at 3 µM (Abl_E255K_h)?
A: The remaining activity at 3 µM was 26%.

Q: And the remaining activity at 3 µM (Flt3_D835Y_h)?
A: Its remaining activity at 3 µM is -1%.

Q: What about the remaining activity at 3 µM (ALK4_h) of the same molecule?
A: The remaining activity at 3 µM was 107%.

Q: What about the remaining activity at 3 µM (ROCK-II_h) of the same molecule?
A: Its remaining activity at 3 µM is 69%.

Q: What about the remaining activity at 3 µM (Met_h) of the same molecule?
A: The remaining activity at 3 µM was 66%.

Q: And the remaining activity at 3 µM (IKBKE_h)?
A: The remaining activity at 3 µM was 67%.

Q: What about the remaining activity at 3 µM (Fms_h; [1]) of the same molecule?
A: Its remaining activity at 3 µM is 2%.

Q: And the pIC50 (Fms_h; [2])?
A: The pIC50 was 8.06.

Q: What about the remaining activity at 3 µM (MSSK1_h) of the same molecule?
A: Its remaining activity at 3 µM is 98%.

Q: What about the remaining activity at 3 µM (DAPK1_h) of the same molecule?
A: The remaining activity at 3 µM was 104%.

Q: And the remaining activity at 3 µM (NEK2_h)?
A: Its remaining activity at 3 µM is 101%.
